In patent US20140357512A1, “HISTONE DEACETYLASE (HDAC) BIOMARKERS IN MULTIPLE MYELOMA” (priority 2013, published 2014):

Tested on: human myeloma cell line MM.1S
Assay: SILAC acetylated-lysine peptide profiling, HDAC inhibitor vs DMSO (light/heavy ratio)
Assay type: cell-based
Description: An embodiment of the invention comprises utilizing the SILAC method in order to quantitate changes in protein expression between two or more populations of cells. The SILAC method is a technique based on mass spectrometry that detects differences in protein abundance among samples using non-radioactive isotopic labeling. The SILAC method is known in the art, and described in detail in Ong et al., “Stable Isotope Labeling by Amino Acids in Cell Culture, SILAC, as a Simple and Accurate Approach to Expression Proteomics”, Molecular & Cellular Proteomics, vol. 1, pp. 376-386 (2002), which is incorporated herein by reference in its entirety.
Briefly, the SILAC method involves growing two populations of cells in cell culture. The first population of cells is grown in growth media containing normal amino acids (“normal media”). The second population of cells is grown in media lacking a standard essential amino acid (such as lysine), but is then supplemented with a non-radioactive, isotopically labeled form of that essential amino acid (such as lysine labeled with ^13C atoms, rather than normal ^12C atoms), which is called “heavy media”. When the two populations of cells are each growing in the medium, they incorporate the amino acids into all of their proteins. The growth of cells maintained in the heavy media is no different from that in normal media. All peptides containing the heavy amino acids are heavier than their normal counterparts. The cells from each of the two populations of cells are lysed. The lysates from each of the two cell populations are then combined. The combined cell lysates are then analyzed by mass spectrometry. Pairs of chemically identical peptides of different stable isotope composition can be differentiated in a mass spectrometer due to their difference in mass. The ratio of peak intensities in the mass spectrum for such peptide pairs reflects the abundance ratio for the two proteins.
This example describes SILAC studies that were performed to compare the effects of three different HDAC inhibitors (Compound A, Compound B, and tubastatin A) to a control on a human multiple myeloma cell line. The HDAC inhibitors were also compared amongst themselves to determine differences in their effects.
A human myeloma cell line MM.1S was grown using either ^12C (light) or ^13C (heavy) lysine containing culture medium. The “heavy” cells were treated with DMSO as the control, and the “light” cells were treated with a single HDAC inhibitor at 37° C. for 6 hours. The heavy and light cells were lysed, and the lysates were mixed in 1:1 ratio and digested with the protease trypsin. The acetylated lysine containing peptides (due to the action of the HDAC inhibitor) in the digested peptide pool were captured by a non-specific anti-acetylated lysine antibody cocktail (the antibodies identify both light and heavy acetylated peptides), and subjected to mass spectrometry analysis in order to identify thousands of individual peptides.
Thousands of peptides were identified in pairs (^12C and ^13C) due to their known mass differences. The amino acid sequence and quantitative ratio (Light/Heavy) of a given peptide in two differentially treated cell lysates were then determined and annotated with their possible protein (gene) sources.
As stated above, three HDAC inhibitors (Compound A, Compound B, and Tubastatin A) were used. Thus, the SILAC method was performed three times, with a different HDAC inhibitor compared to a control each time. Accordingly, there are three pairs of quantitative data in the table below, i.e., Compound A:DMSO, Compound B:DMSO, and Tubastatin A:DMSO. A cut-off of 1.30 fold of change (increase or decrease) was then used to determine “changed” or “+” in the table, and any peptides with a fold of change less than 1.3 fold were determined to be “unchanged” or “0” in the table. Those peptides that were not identified were marked as “NA” in the table. […]

## CN1CCc2c(c3ccccc3n2Cc2ccc(C(=O)NO)cc2)C1 [Tub A]
Heterogeneous nuclear ribonucleoprotein U-like protein 2 [553], gene HNRNPUL2, inhibitor:DMSO
  light to heavy ratio (L/H ratio) of acetylated peptide LLLFK(ac)TFSR (SEQ ID NO: 514): 0.00 log 2
Histone H2B type 1-M [16:17], gene HIST1H2BM, drug:DMSO
  light to heavy ratio (L/H ratio), log 2 scale, acetylated peptide GSK(ac)K(ac)AINK (SEQ ID NO: 792): 0.00
Histone H2B type 1-M [17:21], gene HIST1H2BM, drug:DMSO
  light to heavy ratio (L/H ratio), log 2 scale, acetylated peptide K(ac)AINK(ac)AQK (SEQ ID NO: 793): 0.00
Histone H2B type 2-E [6:12], HIST2H2BE, drug:DMSO
  light to heavy ratio (L/H ratio) of acetylated peptide PEPAK(ac)SAPAPK(ac)K (SEQ ID NO: 309): 0.58 log 2
Histone H2B type 2-E [21:24], gene HIST2H2BE, inhibitor:DMSO
  light to heavy ratio (L/H ratio) of acetylated peptide AVTK(ac)AQK(ac)K (SEQ ID NO: 560): 0.00 log 2
Histone H3.2 [10:15], HIST2H3D, HIST2H3A, HIST2H3C, drug:DMSO
  light to heavy ratio (L/H ratio) of acetylated peptide K(ac)STGGK(ac)APR (SEQ ID NO: 310): 0.46 log 2
Histone H3.2 [19:24], gene HIST2H3D, HIST2H3A, HIST2H3C, drug:DMSO
  light to heavy ratio (L/H ratio), log 2 scale, acetylated peptide K(ac)QLATK(ac)AAR (SEQ ID NO: 796): 0.00
Histone H4 [6:9], HIST2H4B, HIST1H4C and other H4 genes, drug:DMSO
  light to heavy ratio (L/H ratio) of acetylated peptide GK(ac)GGK(ac)GLGK (SEQ ID NO: 311): 0.49 log 2
Histone H4 [13:17], HIST2H4B, HIST1H4C and other H4 genes, drug:DMSO
  light to heavy ratio (L/H ratio) of acetylated peptide GLGK(ac)GGAK(ac)R (SEQ ID NO: 312): 0.49 log 2
Histone H4 [13], HIST2H4B, HIST1H4C and other H4 genes, drug:DMSO
  light to heavy ratio (L/H ratio) of acetylated peptide GLGK(ac)GGAKR (SEQ ID NO: 313): −0.62 log 2
Hydroxymethylglutaryl-CoA lyase mitochondrial [48], HMGCL, drug:DMSO
  light to heavy ratio (L/H ratio) of acetylated peptide DGLQNEK(ac)NIVSTPVK (SEQ ID NO: 268): 0.40 log 2
Hydroxymethylglutaryl-CoA lyase mitochondrial [137], gene HMGCL, inhibitor:DMSO
  light to heavy ratio (L/H ratio) of acetylated peptide K(ac)NINCSIEESFQR (SEQ ID NO: 594): 0.00 log 2
IFVGGLSPDTPEEK(ac)IR (SEQ ID NO: 166), Isoform 1 of Heterogeneous nuclear ribonucleoprotein D0 [197], HNRNPD
  light to heavy ratio (L/H ratio) of acetylated peptide, log 2 scale: −0.78
IGFGSFVDK(ac)TVLPFVSTVPSK (SEQ ID NO: 180), Isoform Long of Integrin beta-7 [199], ITGB7
  light to heavy ratio (L/H ratio) of acetylated peptide, log 2 scale: −0.40
IGIEIIK(ac)R (SEQ ID NO: 174), 60 kDa heat shock protein mitochondrial [469], HSPD1
  light to heavy ratio (L/H ratio) of acetylated peptide, log 2 scale: −0.42
IGLV2-14, IGLC2 [208], log 2 scale, drug vs DMSO
  L/H ratio of acetylated peptide YAASSYLSLTPEQWK(ac)SHR (SEQ ID NO: 56): −0.63
IMK(ac)DLDQCR (SEQ ID NO: 217), Protein S100-A10 [57], S100A10
  light to heavy ratio (L/H ratio) of acetylated peptide, log 2 scale: 0.72
IQDK(ac)EGIPPDQQR (SEQ ID NO: 212), Ubiquitin-40S ribosomal protein S27a [33], RPS27A
  light to heavy ratio (L/H ratio) of acetylated peptide, log 2 scale: −0.50
ISK(ac)EVLAGR (SEQ ID NO: 167), Isoform Short of Heterogeneous nuclear ribonucleoprotein U [417], HNRNPU
  light to heavy ratio (L/H ratio) of acetylated peptide, log 2 scale: −0.75
IVQK(ac)HPHTGDTKEEK (SEQ ID NO: 489), Death-associated protein 1 [29], DAP
  L/H ratio of acetylated peptide: 0.00 log 2
IYFTDSSSK(ac)WQR (SEQ ID NO: 138), Isoform 1 of Adipocyte plasma membrane-associated protein [220], C20orf3
  light to heavy ratio (L/H ratio) of acetylated peptide, log 2 scale: −0.59
Inactive hydroxysteroid dehydrogenase-like protein 1 [64], gene HSDL1, drug:DMSO
  light to heavy ratio (L/H ratio), log 2 scale, acetylated peptide ADLIK(ac)QYGR (SEQ ID NO: 798): 0.00
Isocitrate dehydrogenase [NADP] mitochondrial [180], gene IDH2, inhibitor:DMSO
  light to heavy ratio (L/H ratio) of acetylated peptide HAHGDQYK(ac)ATDFVADR (SEQ ID NO: 574): 0.00 log 2
Isocitrate dehydrogenase [NADP] mitochondrial [193], gene IDH2, inhibitor:DMSO
  light to heavy ratio (L/H ratio) of acetylated peptide AGTFK(ac)MVFTPK (SEQ ID NO: 606): 0.00 log 2
Isoform 1 of 39S ribosomal protein L47 mitochondrial [144], MRPL47, drug:DMSO
  light to heavy ratio (L/H ratio) of acetylated peptide VVDSMDALDK(ac)VVQER (SEQ ID NO: 318): 0.45 log 2
Isoform 1 of 40S ribosomal protein S24 [37], RPS24, drug:DMSO
  light to heavy ratio (L/H ratio) of acetylated peptide ATVPK(ac)TEIR (SEQ ID NO: 272): −0.44 log 2
Isoform 1 of 60S ribosomal protein L11 [85], gene RPL11, inhibitor:DMSO
  light to heavy ratio (L/H ratio) of acetylated peptide AEEILEK(ac)GLK (SEQ ID NO: 547): 0.00 log 2
Isoform 1 of 60S ribosomal protein L11 [159], RPL11, drug:DMSO
  light to heavy ratio (L/H ratio) of acetylated peptide ISK(ac)EEAMR (SEQ ID NO: 299): −0.48 log 2
Isoform 1 of ATP synthase subunit d mitochondrial [72], ATP5H, drug:DMSO
  light to heavy ratio (L/H ratio) of acetylated peptide AGLVDDFEK(ac)K (SEQ ID NO: 301): 0.66 log 2
Isoform 1 of ATP synthase subunit d mitochondrial [85], ATP5H, drug:DMSO
  light to heavy ratio (L/H ratio) of acetylated peptide VPVPEDK(ac)YTAQVDAEEKEDVK (SEQ ID NO: 290): 0.50 log 2
Isoform 1 of Dedicator of cytokinesis protein 2 [738], gene DOCK2, inhibitor:DMSO
  light to heavy ratio (L/H ratio) of acetylated peptide TLK(ac)ALEYVFK (SEQ ID NO: 516): 0.00 log 2
Isoform 1 of E3 UFM1-protein ligase 1 [614], gene UFL1, drug:DMSO
  light to heavy ratio (L/H ratio), log 2 scale, acetylated peptide ILSK(ac)LSEETK (SEQ ID NO: 759): 0.00
Isoform 1 of Heat shock cognate 71 kDa protein [601], gene HSPA8, inhibitor:DMSO
  light to heavy ratio (L/H ratio) of acetylated peptide ELEK(ac)VCNPIITK (SEQ ID NO: 612): 0.00 log 2
Isoform 1 of Histone-lysine N-methyltransferase MLL3 [2809], gene MLL3, inhibitor:DMSO
  light to heavy ratio (L/H ratio) of acetylated peptide TLVLSDK(ac)HSPQK (SEQ ID NO: 523): 0.00 log 2
Isoform 1 of Hydroxyacyl-coenzyme A dehydrogenase mitochondrial [127], gene HADH, inhibitor:DMSO
  light to heavy ratio (L/H ratio) of acetylated peptide VK(ac)NELFK (SEQ ID NO: 565): 0.00 log 2
Isoform 1 of Hydroxyacyl-coenzyme A dehydrogenase mitochondrial [301], HADH, drug:DMSO
  light to heavy ratio (L/H ratio) of acetylated peptide LVAENK(ac)FGK (SEQ ID NO: 296): −0.43 log 2
Isoform 1 of L-lactate dehydrogenase A chain [318], LDHA, drug:DMSO
  light to heavy ratio (L/H ratio) of acetylated peptide K(ac)SADTLWGIQK (SEQ ID NO: 316): 1.00 log 2
Isoform 1 of N-alpha-acetyltransferase 50 NatE catalytic subunit [37], gene NAA50, inhibitor:DMSO
  light to heavy ratio (L/H ratio) of acetylated peptide FYK(ac)DVLEVGELAK (SEQ ID NO: 596): 0.00 log 2
Isoform 1 of Peripherin [288], gene PRPH, drug:DMSO
  light to heavy ratio (L/H ratio), log 2 scale, acetylated peptide NLQEAEEWYK(ac)SK (SEQ ID NO: 767): 0.00
Isoform 1 of Protein MB21D1 [414], gene MB21D1, inhibitor:DMSO
  light to heavy ratio (L/H ratio) of acetylated peptide LMK(ac)YLLEQLK (SEQ ID NO: 585): 0.00 log 2
Isoform 1 of Protein SET [154], SET, drug:DMSO
  light to heavy ratio (L/H ratio) of acetylated peptide VLSK(ac)EFHLNESGDPSSK (SEQ ID NO: 294): −1.00 log 2
Isoform 1 of RNA-binding protein with serine-rich domain 1 [218], RNPS1, drug:DMSO
  light to heavy ratio (L/H ratio) of acetylated peptide GYAYVEFENPDEAEK(ac)ALK (SEQ ID NO: 349): 0.00 log 2
Isoform 1 of Signal recognition particle 9 kDa protein [52], gene SRP9, drug:DMSO
  light to heavy ratio (L/H ratio), log 2 scale, acetylated peptide […](ac)TDQAQDVK (SEQ ID NO: 765): 0.00
Isoform 1 of UDP-N-acetylglucosamine--dolichyl-phosphate N-acetylglucosaminephosphotransferase [320], DPAGT1, drug:DMSO
  light to heavy ratio (L/H ratio) of acetylated peptide LEMSYSK(ac)FK (SEQ ID NO: 304): 0.48 log 2
